Experimental data as given in ChEMBL document CHEMBL3045994, “Design, synthesis, and anticonvulsant evaluation of some novel 1, 3 benzothiazol-2-yl hydrazones/acetohydrazones” (Med Chem Res, 2012).

What was measured:
Mus musculus [1] = assay: Anticonvulsant activity in Mus musculus albino CF1 (mouse) assessed as protection against 6 Hz psychomotor seizure at 100 mg/kg, ip after 0.5 hr; type: functional; settings: route intraperitoneal
Mus musculus [2] = assay: Neurotoxicity in Mus musculus albino CF1 (mouse) assessed as motor impairment at 100 mg/kg, ip after 4 hr; type: toxicity, organism-based; set-up: dose 100 mg/kg, route intraperitoneal; settings: in vivo
Mus musculus [3] = assay: Neurotoxicity in Mus musculus albino CF1 (mouse) assessed as motor impairment at 100 mg/kg, ip after 1 hr; type: toxicity, organism-based; set-up: dose 100 mg/kg, route intraperitoneal; settings: in vivo
[4] = Octanol-phosphate buffer partition coefficient, log P of the compound after 24 hr; type: physicochemical
Mus musculus [5] = assay: Neurotoxicity in Mus musculus albino CF1 (mouse) assessed as motor impairment at 100 mg/kg, ip after 2 hr; type: toxicity, organism-based; set-up: dose 100 mg/kg, route intraperitoneal; settings: in vivo
Mus musculus [6] = assay: Anticonvulsant activity in Mus musculus albino CF1 (mouse) assessed as protection against 6 Hz psychomotor seizure at 100 mg/kg, ip after 0.25 hr; type: functional; settings: route intraperitoneal
Mus musculus [7] = assay: Neurotoxicity in Mus musculus albino CF1 (mouse) assessed as motor impairment at 100 mg/kg, ip after 0.5 hr; type: toxicity, organism-based; set-up: dose 100 mg/kg, route intraperitoneal; settings: in vivo
Mus musculus [8] = assay: Neurotoxicity in Mus musculus albino CF1 (mouse) assessed as motor impairment at 100 mg/kg, ip after 0.25 hr; type: toxicity, organism-based; set-up: dose 100 mg/kg, route intraperitoneal; settings: in vivo
Mus musculus [9] = assay: Anticonvulsant activity in Mus musculus albino CF1 (mouse) assessed as protection against 6 Hz psychomotor seizure at 100 mg/kg, ip after 1 hr; type: functional; settings: route intraperitoneal
Mus musculus [10] = assay: Neurotoxicity in Mus musculus albino CF1 (mouse) assessed as motor impairment at 300 mg/kg, ip up to 4 hr; type: toxicity, organism-based; set-up: dose 300 mg/kg, route intraperitoneal; settings: in vivo
Mus musculus [11] = assay: Anticonvulsant activity in Mus musculus albino CF1 (mouse) assessed as protection against 6 Hz psychomotor seizure at 100 mg/kg, ip after 4 hr; type: functional; settings: route intraperitoneal
Mus musculus [12] = assay: Anticonvulsant activity in Mus musculus albino CF1 (mouse) assessed as protection against 6 Hz psychomotor seizure at 100 mg/kg, ip after 2 hr; type: functional; settings: route intraperitoneal

Compound | logP at 24 h [4] | Activity (Mus musculus [1]) [%] | Activity (Mus musculus [2]) | Activity (Mus musculus [3]) | Activity (Mus musculus [5]) | Activity (Mus musculus [6]) [%] | Activity (Mus musculus [7]) | Activity (Mus musculus [8]) | Activity (Mus musculus [9]) [%] | Activity (Mus musculus [10]) | Activity (Mus musculus [11]) [%] | Activity (Mus musculus [12]) [%]
O=[N+]([O-])c1ccc(Oc2ccc(/C=N/Nc3nc4ccccc4s3)cc2)cc1 | 5.1 | 25 | Non-toxic | Non-toxic | Non-toxic | 50 | Non-toxic | Non-toxic | 50 | Non-toxic | 0 | 0
O=C(CSc1nc2ccccc2s1)N/N=C/c1ccc(Oc2ccc3ccccc3c2)cc1 | 5.9 | 25 | Non-toxic | Non-toxic | Non-toxic | 0 | Non-toxic | Non-toxic | 0 | Non-toxic | 0 | 0
O=C1Nc2ccccc2/C1=N/Nc1nc2ccccc2s1 | 3.2 | 0 | Non-toxic | Non-toxic | Non-toxic | 0 | Non-toxic | Non-toxic | 25 | Non-toxic | 0 | 25
Fc1ccc(Oc2ccc(/C=N/Nc3nc4ccccc4s3)cc2)cc1 | 5 |  |  |  |  |  |  |  |  | Non-toxic |  | 
O=C(CSc1nc2ccccc2s1)N/N=C/c1ccc(Oc2ccc([N+](=O)[O-])cc2)cc1 | 5.3 | 0 | Non-toxic | Non-toxic | Non-toxic | 0 | Non-toxic | Non-toxic | 25 | Non-toxic | 0 | 0
O=C(CSc1nc2ccccc2s1)N/N=C/c1ccc(Oc2ccccc2)cc1 | 5.6 | 25 | Non-toxic | Non-toxic | Non-toxic | 50 | Non-toxic | Non-toxic | 50 | Non-toxic | 0 | 0
C(=N\Nc1nc2ccccc2s1)/c1ccc(Oc2ccccc2)cc1 | 5.2 | 25 | Non-toxic | Non-toxic | Non-toxic | 0 | Non-toxic | Non-toxic | 0 | Non-toxic | 0 | 50

Second part, led by results:

logP at 24 h [4] | Compound | Activity (Mus musculus [1]) [%] | Activity (Mus musculus [2]) | Activity (Mus musculus [3]) | Activity (Mus musculus [5]) | Activity (Mus musculus [6]) [%] | Activity (Mus musculus [7]) | Activity (Mus musculus [8]) | Activity (Mus musculus [9]) [%] | Activity (Mus musculus [10]) | Activity (Mus musculus [11]) [%] | Activity (Mus musculus [12]) [%]
5.6 | C(=N\Nc1nc2ccccc2s1)/c1ccc(Oc2ccc3ccccc3c2)cc1 | 0 | Non-toxic | Non-toxic | Non-toxic | 25 | Non-toxic | Non-toxic | 25 | Non-toxic | 0 | 50
5.7 | Cc1cc(Oc2ccc(/C=N/NC(=O)CSc3nc4ccccc4s3)cc2)ccc1Cl | 25 | Non-toxic | Non-toxic | Non-toxic | 0 | Non-toxic | Non-toxic | 25 | Non-toxic | 0 | 0
5.5 | Brc1ccc(Oc2ccc(/C=N/Nc3nc4ccccc4s3)cc2)cc1 | 50 | Non-toxic | Non-toxic | Non-toxic | 0 | Non-toxic | Non-toxic | 25 | Non-toxic | 0 | 50
